The text below walks through data of US10752604B2, “C-glucoside derivative containing fused phenyl ring or pharmaceutically acceptable salt thereof, process for preparing same, and pharmaceutical composition comprising same” (Je II Pharmaceutical Co., Ltd., priority 2016, dated 2020).

One assay has as its target human SGLT1 (Homo sapiens (Human), UniProt P13866). In words: Inhibitory effect on human SGLT1 activity (14C-AMG uptake in CHO cells expressing hSGLT1). Type of assay: cell-based. To be noted: 14C-AMG transport, CHO cells expressing hSGLT1, 2 hours. From the text:
(§1) Human SGLT1 (hSGLT1), human SGLT2 (hSGLT2) genes were amplified from a human marathon-ready cDNA library (Clontech)) by means of an PCR method, after which resulting amplified sequences were combined with a pcDNA 3.1(+) vector, which was a mammalian expression vector, so as to prepare recombinant expression vectors pcDNA3.1(+)/hSGLT1, pcDNA3.1(+)/hSGLT2. Resulting recombinant expression vectors were transformed into Chinese Hamster Ovarian cells, after which stably transformed clones were selected by means of a colony picking method by using a resistance to G418, a selective marker included in the vector. Out of selected clones, clones for expressing hSGLT1 and hSGLT2 were selected based on activity in analysis of ^14C-α-methyl-D-glucopyranoside (^14C-AMG) transport.
To analyze a sodium-dependent glucose transport, cells for expressing hSGLT1 and hSGLT2 were seeded at 1×10^5 cells per well into a 96-well culture plate, after which resulting cells were cultured in an RPMI 1640 medium containing 10% fetal bovine serum (FBS). In 1 day after culture, the resulting cells were cultured in a pre-treatment buffer solution (10 mM HEPES, 5 mM tris, 140 mM choline chloride, 2 mM KCl, 1 mM CaCl2 and 1 mM MgCl2, pH 7.4) under 37° C./5% CO2 conditions for 10 minutes. Then, the resulting cells were cultured in a uptake buffer solution (10 mM HEPES, 5 mM tris, 140 mM NaCl, 2 mM KCl, 1 mM CaCl2, 1 mM MgCl2 and 1 mM AMGS pH 7.4) containing 14C-AMG (8 μM) and a compound of the present disclosure or a dimethyl sulfoxide (DMSO) vehicle under 37° C./5% CO2 conditions for 2 hours. After culture, the cells were washed twice with a washing buffer solution (a pre-treatment buffer solution containing 10 mM AMG at room temperature), after which a radiation thereof was measured by using a liquid scintillation counter. IC50 of each compound was measured according to a non-linear regression analysis by using SigmaPlot (Document Analytical Biochemistry 429: 70-75, Molecular and Cellular Biochemistry 280: 91-98, 2005). SGLT1/2 in-vitro assay results are shown in a following Table 1.

The target of another assay is human SGLT2 (Homo sapiens (Human), UniProt P31639). In words: Inhibitory effect on human SGLT2 activity (14C-AMG uptake in CHO cells expressing hSGLT2). Type of assay: cell-based. The note with it: 14C-AMG transport, CHO cells expressing hSGLT2, 2 hours.
Text: as §1
In 1 day after culture, the resulting cells were cultured in a pre-treatment buffer solution (10 mM HEPES, 5 mM tris, 140 mM choline chloride, 2 mM KCl, 1 mM CaCl2 and 1 mM MgCl2, pH 7.4) under 37° C./5% CO2 conditions for 10 minutes. Then, the resulting cells were cultured in a uptake buffer solution (10 mM HEPES, 5 mM tris, 140 mM NaCl, 2 mM KCl, 1 mM CaCl2, 1 mM MgCl2 and 1 mM AMGS pH 7.4) containing 14C-AMG (8 μM) and a compound of the present disclosure or a dimethyl sulfoxide (DMSO) vehicle under 37° C./5% CO2 conditions for 2 hours. After culture, the cells were washed twice with a washing buffer solution (a pre-treatment buffer solution containing 10 mM AMG at room temperature), after which a radiation thereof was measured by using a liquid scintillation counter.

pIC50: −log10 of the molar value.

Chain of human SGLT2 (P31639 whole entry): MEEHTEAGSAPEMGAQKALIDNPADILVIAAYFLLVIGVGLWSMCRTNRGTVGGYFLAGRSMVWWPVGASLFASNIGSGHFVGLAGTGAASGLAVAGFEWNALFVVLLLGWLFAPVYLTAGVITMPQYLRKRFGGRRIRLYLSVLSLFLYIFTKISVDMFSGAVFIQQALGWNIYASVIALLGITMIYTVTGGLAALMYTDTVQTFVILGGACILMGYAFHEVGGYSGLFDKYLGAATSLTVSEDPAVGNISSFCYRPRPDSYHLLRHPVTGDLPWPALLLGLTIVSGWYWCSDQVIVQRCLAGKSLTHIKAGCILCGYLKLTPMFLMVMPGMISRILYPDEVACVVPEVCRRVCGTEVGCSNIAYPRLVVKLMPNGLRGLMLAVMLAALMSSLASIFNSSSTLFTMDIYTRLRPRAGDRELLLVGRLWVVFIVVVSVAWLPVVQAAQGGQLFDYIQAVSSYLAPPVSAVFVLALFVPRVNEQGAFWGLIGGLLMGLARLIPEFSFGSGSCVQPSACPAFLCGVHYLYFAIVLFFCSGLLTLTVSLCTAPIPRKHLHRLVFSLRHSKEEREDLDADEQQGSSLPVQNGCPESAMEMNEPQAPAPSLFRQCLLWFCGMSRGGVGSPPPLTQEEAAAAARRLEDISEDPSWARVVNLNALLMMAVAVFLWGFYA
Chain of human SGLT1 (P13866 whole entry): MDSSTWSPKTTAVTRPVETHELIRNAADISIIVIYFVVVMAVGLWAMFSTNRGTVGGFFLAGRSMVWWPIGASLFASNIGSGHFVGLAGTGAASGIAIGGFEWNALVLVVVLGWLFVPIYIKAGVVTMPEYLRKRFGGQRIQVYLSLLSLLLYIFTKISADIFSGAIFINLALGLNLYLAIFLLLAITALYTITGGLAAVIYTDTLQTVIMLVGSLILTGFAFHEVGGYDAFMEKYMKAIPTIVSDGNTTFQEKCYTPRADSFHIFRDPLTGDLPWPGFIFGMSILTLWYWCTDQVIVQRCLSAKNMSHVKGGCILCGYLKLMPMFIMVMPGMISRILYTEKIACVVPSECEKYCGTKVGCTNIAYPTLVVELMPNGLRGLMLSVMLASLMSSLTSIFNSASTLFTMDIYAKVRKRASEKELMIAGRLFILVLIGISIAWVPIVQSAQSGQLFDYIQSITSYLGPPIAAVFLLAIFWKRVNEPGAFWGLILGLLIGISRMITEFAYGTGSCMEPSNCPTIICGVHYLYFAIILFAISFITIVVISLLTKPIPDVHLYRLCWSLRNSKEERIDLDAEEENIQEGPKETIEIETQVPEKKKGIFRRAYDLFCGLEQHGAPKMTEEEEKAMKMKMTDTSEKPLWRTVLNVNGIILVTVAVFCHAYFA

The term pIC50 denotes the negative decadic logarithm of the IC50, by convention in mol/L. A low value points to a high IC50. Take `CCOc1ccc(Cc2cc([C@@H]3O[C@H](CO)[C@@H](O)[C@H](O)[C@H]3O)c(C)c3c2CCC3)cc1` [Example 2, (2S,3R,4R,5S,6R)-2-(7-(4-ethoxybenzyl)-4-methyl-2,3-dihydro-1H-indene-5-yl)-6-(hydroxymethyl)tetrahydro-2H-pyran-3,4,5-triol]: the negative logarithm of the IC50 (pIC50) on human SGLT1 was 7.12; against human SGLT2, 8.52.
As for `Cc1c([C@@H]2O[C@H](CO)[C@@H](O)[C@H](O)[C@H]2O)cc(Cc2ccc(Cl)cc2)c2c1CCC2` [Example 16, (2S,3R,4R,5S,6R)-2-(7-(4-chlorobenzyl)-4-methyl-2,3-dihydro-1H-indene-5-yl)-6-(hydroxymethyl)tetrahydro-2H-pyran-3,4,5-triol], on human SGLT1, the negative-log IC50 (pIC50) was 7.84.
On the same count and under the same terms, as for `CCCc1ccc(Cc2cc([C@@H]3O[C@H](CO)C(O)[C@H](O)C3O)c(C)c3c2CCC3)cc1` (stereo in doubt) [Example 6, (2R,3S,4R,5R,6S)-2-(hydroxymethyl)-6-(4-methyl-7-(4-propylbenzyl)-2,3-dihydro-1H-indene-5-yl)tetrahydro-2H-pyran-3,4,5-triol], the figure is 6.72.
As for `Cc1ccc(Cc2cc([C@@H]3O[C@H](CO)[C@@H](O)[C@H](O)[C@H]3O)c(CC(C)C)c3c2CCC3)cc1` [Example 64, (2R,3S,4R,5R,6S)-2-(hydroxymethyl)-6-(4-isobutyl-7-(4-methylbenzyl)-2,3-dihydro-1H-indene-5-yl)tetrahydro-2H-pyran-3,4,5-triol], the pIC50 was 6.29 against human SGLT1 and 7.72 at human SGLT2.
As to `COc1ccc(Cc2cc([C@@H]3O[C@H](CO)[C@@H](O)[C@H](O)[C@H]3O)c(C(C)C)c3c2CCC3)cc1` [Example 61, (2R,3S,4R,5R,6S)-2-(hydroxymethyl)-6-(4-isopropyl-7-(4-methoxybenzyl)-2,3-dihydro-1H-indene-5-yl)tetrahydro-2H-pyran-3,4,5-triol], the pIC50 is 6.70 on human SGLT1 and 8.69 against human SGLT2.
In the case of `CCCCc1c([C@@H]2O[C@H](CO)[C@@H](O)[C@H](O)[C@H]2O)cc(Cc2ccc(C)cc2)c2c1CCC2` [Example 58, (2S,3R,4R,5S,6R)-2-(4-butyl-7-(4-methylbenzyl)-2,3-dihydro-1H-indene-5-yl)-6-(hydroxymethyl)tetrahydro-2H-pyran-3,4,5-triol], the figures for the pIC50 on human SGLT1 and against human SGLT2 were 6.54 and 7.92, respectively.
The matching figures for `CCc1ccc(Cc2cc([C@@H]3O[C@H](CO)[C@@H](O)[C@H](O)[C@H]3O)c(CC(C)C)c3c2CCC3)cc1` [Example 65, (2S,3R,4R,5S,6R)-2-(7-(4-ethylbenzyl)-4-isobutyl-2,3-dihydro-1H-indene-5-yl)-6-(hydroxymethyl)tetrahydro-2H-pyran-3,4,5-triol]: 5.79 and 7.42.
`Cc1c([C@@H]2O[C@H](CO)C(O)[C@H](O)C2O)cc(Cc2ccc(OC(C)C)cc2)c2c1CCC2` (stereo in doubt) [Example 3, (2R,3S,4R,5R,6S)-2-(hydroxymethyl)-6-(7-(4-isopropoxybenzyl)-4-methyl-2,3-dihydro-1H-indene-5-yl)tetrahydro-2H-pyran-3,4,5-triol] had a pIC50 against human SGLT1 of 6.85.
On to `CSc1ccc(Cc2cc([C@@H]3O[C@H](CO)[C@@H](O)[C@H](O)[C@H]3O)c(C)c3c2CCC3)cc1` [Example 13], for which the results for the negative logarithm of the IC50 (pIC50) on human SGLT1 and at human SGLT2 were 7.82 and 8.92, respectively.
On the same counts, the results for `Cc1ccc([C@@H]2O[C@H](CO)[C@@H](O)[C@H](O)[C@H]2O)cc1Cc1ccc(-c2ccc(F)cc2)s1` [Canagliflozin, reference compound] are 6.26 and 8.31.
`Cc1c(C2O[C@H](CO)C(O)[C@H](O)C2O)cc(Cc2ccc(C(C)C)cc2)c2c1CCC2` (stereo in doubt) [Example 7, (2R,3S,4R,5R,6S)-2-(hydroxymethyl)-6-(7-(4-isopropylbenzyl)-4-methyl-2,3-dihydro-1H-indene-5-yl)tetrahydro-2H-pyran-3,4,5-triol]: the pIC50 at human SGLT1 is 6.53.
On to `CCc1c([C@@H]2O[C@H](CO)[C@@H](O)[C@H](O)[C@H]2O)cc(Cc2ccc(C)cc2)c2c1CCC2` [Example 41, (2S,3R,4R,5S,6R)-2-(4-ethyl-7-(4-methylbenzyl)-2,3-dihydro-1H-indene-5-yl)-6-(hydroxymethyl)tetrahydro-2H-pyran-3,4,5-triol], for which the values for the negative logarithm of the IC50 (pIC50) on human SGLT1 and on human SGLT2 were 7.38 and 8.43, respectively.
The matching figures for `COc1ccc(Cc2cc([C@@H]3O[C@H](CO)[C@@H](O)[C@H](O)[C@H]3O)c(C)c3c2CCC3)cc1` [Example 1, (2R,3S,4R,5R,6S)-2-(hydroxymethyl)-6-(7-(4-methoxybenzyl)-4-methyl-2,3-dihydro-1H-indene-5-yl)tetrahydro-2H-pyran-3,4,5-triol]: 8.04 and 8.89.
Consider `C=Cc1ccc(Cc2cc([C@@H]3O[C@H](CO)[C@@H](O)[C@H](O)[C@H]3O)c(C)c3c2OCC3)cc1` [Example 34, (2R,3S,4R,5R,6S)-2-(hydroxymethyl)-6-(4-methyl-7-(4-vinylbenzyl)-2,3-dihydrobenzofuran-5-yl)tetrahydro-2H-pyran-3,4,5-triol], for which the pIC50 against human SGLT1 is 6.53.
For the molecule `CCCc1c([C@@H]2O[C@H](CO)[C@@H](O)[C@H](O)[C@H]2O)cc(Cc2ccc(C)cc2)c2c1CCC2` [Example 53, (2R,3S,4R,5R,6S)-2-(hydroxymethyl)-6-(7-(4-methylbenzyl)-4-propyl-2,3-dihydro-1H-indene-5-yl)tetrahydro-2H-pyran-3,4,5-triol], the figures for the negative-log IC50 (pIC50) against human SGLT1 and against human SGLT2 were 7.02 and 8.74, respectively.
The matching figures for `CCc1ccc(Cc2cc([C@@H]3O[C@H](CO)C(O)[C@H](O)C3O)c(C)c3c2CCC3)cc1` (stereo in doubt) [Example 5, (2S,3R,4R,5S,6R)-2-(7-(4-ethylbenzyl)-4-methyl-2,3-dihydro-1H-indene-5-yl)-6-(hydroxymethyl)tetrahydro-2H-pyran-3,4,5-triol]: 7.40 and 8.55.
On the same counts, the results for `CCc1c([C@@H]2O[C@H](CO)[C@@H](O)[C@H](O)[C@H]2O)cc(Cc2ccc(OC)cc2)c2c1CCC2` [Example 42, (2S,3R,4R,5S,6R)-2-(4-ethyl-7-(4-methoxybenzyl)-2,3-dihydro-1H-indene-5-yl)-6-(hydroxymethyl)tetrahydro-2H-pyran-3,4,5-triol] are 7.22 and 8.56.
On the same counts, the results for `CCCCc1c([C@@H]2O[C@H](CO)[C@@H](O)[C@H](O)[C@H]2O)cc(Cc2ccc(OC)cc2)c2c1CCC2` [Example 57, (2S,3R,4R,5S,6R)-2-(4-butyl-7-(4-methoxybenzyl)-2,3-dihydro-1H-indene-5-yl)-6-(hydroxymethyl)tetrahydro-2H-pyran-3,4,5-triol] are 6.43 and 8.23.
As for `CCCc1c([C@@H]2O[C@H](CO)[C@@H](O)[C@H](O)[C@H]2O)cc(Cc2ccc(OC)cc2)c2c1CCC2` [Example 52, (2R,3S,4R,5R,6S)-2-(hydroxymethyl)-6-(7-(4-methoxybenzyl)-4-propyl-2,3-dihydro-1H-indene-5-yl)tetrahydro-2H-pyran-3,4,5-triol], the results for the negative-log IC50 (pIC50) against human SGLT1 and against human SGLT2 were 6.63 and 8.04, respectively.
